Reference: ChEMBL document CHEMBL1949658, “3D-QSAR and 3D-QSSR models of negative allosteric modulators facilitate the design of a novel selective antagonist of human α4β2 neuronal nicotinic acetylcholine receptors” (Bioorg Med Chem Lett, 2012)

What was measured:
[1] = molecular target: Neuronal acetylcholine receptor; alpha3/beta4 (Homo sapiens, UniProt P30926+P32297); assay: Antagonist activity at human nAChR alpha3/beta4 receptor expressed in HEK ts201 cells assessed as calcium accumulation by fluorescence analysis; assay type: functional, cell-based
[2] = molecular target: Neuronal acetylcholine receptor; alpha4/beta2 (Homo sapiens, UniProt P17787+P43681); assay: Antagonist activity at human nAChR alpha4/beta2 receptor expressed in HEK ts201 cells assessed as calcium accumulation by fluorescence analysis; assay type: functional, cell-based
Homo sapiens = organism: Homo sapiens; assay: Selectivity ratio of pIC50 for human nAChR alpha3/beta4 receptor to pIC50 for human nAChR alpha4/beta2 receptor

Chain of Neuronal acetylcholine receptor; alpha4/beta2 (P17787 whole entry): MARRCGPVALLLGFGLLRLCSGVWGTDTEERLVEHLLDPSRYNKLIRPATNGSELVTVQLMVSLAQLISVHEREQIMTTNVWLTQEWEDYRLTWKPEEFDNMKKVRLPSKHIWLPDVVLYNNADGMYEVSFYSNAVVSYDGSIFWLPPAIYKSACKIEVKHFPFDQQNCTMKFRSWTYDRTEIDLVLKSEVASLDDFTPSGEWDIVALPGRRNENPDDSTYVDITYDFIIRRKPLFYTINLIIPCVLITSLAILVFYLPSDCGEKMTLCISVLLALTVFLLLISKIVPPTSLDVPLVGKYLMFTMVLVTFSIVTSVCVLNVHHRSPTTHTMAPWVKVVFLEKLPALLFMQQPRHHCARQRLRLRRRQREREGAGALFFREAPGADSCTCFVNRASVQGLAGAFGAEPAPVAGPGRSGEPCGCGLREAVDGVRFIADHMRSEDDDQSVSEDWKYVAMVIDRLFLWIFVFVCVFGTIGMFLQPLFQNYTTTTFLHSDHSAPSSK
Chain of Neuronal acetylcholine receptor; alpha4/beta2 (P43681 whole entry): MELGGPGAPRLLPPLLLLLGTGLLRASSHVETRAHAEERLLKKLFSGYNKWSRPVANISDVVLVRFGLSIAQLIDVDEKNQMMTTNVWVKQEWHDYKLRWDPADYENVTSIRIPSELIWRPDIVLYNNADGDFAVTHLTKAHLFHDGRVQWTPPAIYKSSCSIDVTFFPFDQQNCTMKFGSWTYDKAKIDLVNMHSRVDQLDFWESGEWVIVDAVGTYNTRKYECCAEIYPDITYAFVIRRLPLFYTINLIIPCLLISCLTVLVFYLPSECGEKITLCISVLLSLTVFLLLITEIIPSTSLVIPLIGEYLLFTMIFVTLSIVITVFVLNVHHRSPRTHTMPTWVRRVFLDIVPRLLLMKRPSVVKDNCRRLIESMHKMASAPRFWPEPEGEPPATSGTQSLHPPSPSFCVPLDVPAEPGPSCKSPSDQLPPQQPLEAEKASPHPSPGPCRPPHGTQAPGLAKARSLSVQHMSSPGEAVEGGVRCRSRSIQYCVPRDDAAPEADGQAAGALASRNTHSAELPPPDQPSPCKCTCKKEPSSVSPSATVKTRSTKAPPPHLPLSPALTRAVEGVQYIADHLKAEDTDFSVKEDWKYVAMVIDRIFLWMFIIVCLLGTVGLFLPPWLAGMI
Chain of Neuronal acetylcholine receptor; alpha3/beta4 (P30926 whole entry): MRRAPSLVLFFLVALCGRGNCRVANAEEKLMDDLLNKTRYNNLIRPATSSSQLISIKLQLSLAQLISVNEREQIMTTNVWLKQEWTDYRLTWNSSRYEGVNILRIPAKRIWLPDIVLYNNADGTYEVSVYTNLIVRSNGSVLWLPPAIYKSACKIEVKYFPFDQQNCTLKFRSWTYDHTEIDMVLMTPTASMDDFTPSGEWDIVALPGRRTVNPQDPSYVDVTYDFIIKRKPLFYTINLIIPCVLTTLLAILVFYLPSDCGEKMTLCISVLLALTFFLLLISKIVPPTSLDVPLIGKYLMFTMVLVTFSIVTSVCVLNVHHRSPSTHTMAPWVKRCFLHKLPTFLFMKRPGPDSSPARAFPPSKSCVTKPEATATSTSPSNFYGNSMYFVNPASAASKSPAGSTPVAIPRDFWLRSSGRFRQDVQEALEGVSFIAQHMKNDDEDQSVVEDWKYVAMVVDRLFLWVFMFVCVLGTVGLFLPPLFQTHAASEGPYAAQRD
Chain of Neuronal acetylcholine receptor; alpha3/beta4 (P32297 whole entry): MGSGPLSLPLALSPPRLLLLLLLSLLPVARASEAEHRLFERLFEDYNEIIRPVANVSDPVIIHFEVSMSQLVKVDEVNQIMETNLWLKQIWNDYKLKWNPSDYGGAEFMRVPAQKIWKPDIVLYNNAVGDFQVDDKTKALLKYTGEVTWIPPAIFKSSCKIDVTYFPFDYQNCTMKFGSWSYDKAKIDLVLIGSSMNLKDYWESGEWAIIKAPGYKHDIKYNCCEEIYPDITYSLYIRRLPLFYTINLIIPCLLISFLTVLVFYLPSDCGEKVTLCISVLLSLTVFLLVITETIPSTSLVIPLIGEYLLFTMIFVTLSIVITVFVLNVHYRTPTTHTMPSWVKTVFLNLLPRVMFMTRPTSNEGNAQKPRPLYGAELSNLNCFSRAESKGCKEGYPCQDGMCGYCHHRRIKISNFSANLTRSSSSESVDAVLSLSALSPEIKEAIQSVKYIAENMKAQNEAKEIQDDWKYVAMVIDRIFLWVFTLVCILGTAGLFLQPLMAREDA

Row | Compound | IC50 ([1]; read-out: pIC50 (converted)) | IC50 ([2]; read-out: pIC50 (converted)) | Ratio pIC50 (Homo sapiens) | IC50 ([1]; read-out: IC50) | IC50 ([2]; read-out: IC50)
1 | CC1CC(=O)N(c2ccccc2C(=O)OCC2CCCN(CCOc3cccc4ccccc34)C2)C1=O (stereo unspecified) | 15.8 µM | 3.89 µM | 0.61 | – | –
2 | CC1CC(=O)N(c2ccccc2C(=O)OC[C@@H]2C[C@H](C3CCCCC3)CN(CCCc3ccccc3)C2)C1=O (stereo partly specified) | 85.1 µM | 39.8 µM | 0.33 | – | –
3 | O=C(OCC1CCN(CCCc2ccccc2)CC1)c1ccccc1-c1ccccc1 | – | – | 0.11 | 10.5 µM | 8.1 µM
4 | O=C(OCC1CCCN(CCCc2ccccc2)C1)c1ccccc1N1C(=O)CC(Cc2ccc(Cl)cc2)C1=O (stereo unspecified) | 14.5 µM | 10.7 µM | 0.14 | – | –
5 | O=C(OCC1CCCN(CCCc2ccccc2)C1)c1ccccc1C(F)(F)F (single isomer, unassigned) | – | – | -0.16 | 5.5 µM | 8 µM
6 | CO[C@@H]1C[C@H](OC)C[C@@H](OCCN2CCCC(COC(=O)c3ccccc3N3C(=O)CC(C)C3=O)C2)C1 (stereo partly specified) | 41.7 µM | 12.6 µM | 0.68 | – | –
7 | O=C(OCc1ccccc1-c1ccccc1)C1CCCN(CCCc2ccccc2)C1 (single isomer, unassigned) | 10.2 µM | 17.8 µM | 0.24 | – | –
8 | COc1ccc(OCCN2CCCC(COC(=O)c3ccccc3N3C(=O)CC(C)C3=O)C2)cc1 (stereo unspecified) | 12 µM | 66.1 µM | -0.75 | – | –
9 | O=C(CCc1ccccc1)N1CCCC(CN(Cc2ccccc2-c2ccccc2)Cc2ccccc2-c2ccccc2)C1 (stereo unspecified) | 40.7 µM | 20.9 µM | 0.29 | – | –
10 | CCN1CCCC(COC(=O)c2ccccc2N2C(=O)CC(Cc3ccccc3)C2=O)C1 (stereo unspecified) | 11.7 µM | 4.47 µM | 0.42 | – | –
11 | [N-]=[N+]=NCCCN1CCCC(COC(=O)c2ccccc2-c2ccccc2)C1 (single isomer, unassigned) | 1.82 µM | 4.27 µM | -0.38 | – | –
12 | O=C(OCC1CCCN(CCCc2ccccc2)C1)c1ccccc1Cl (single isomer, unassigned) | 22.9 µM | 9.33 µM | 0.39 | – | –
13 | CC1(C)OC2C3CC(C2O1)N(CCCc1ccccc1)CC3OC(=O)c1ccccc1-c1ccccc1 (stereo unspecified) | 13.8 µM | 11.5 µM | 0.08 | – | –
14 | CCN1CC(OC(=O)c2ccccc2N2C(=O)CC(C)C2=O)C2CC1C1OC(C)(C)OC21 (stereo unspecified) | 77.6 µM | 12 µM | 0.81 | – | –
15 | c1ccc(CCCN2CCCC(COCc3cn(Cc4ccccc4-c4ccccc4)nn3)C2)cc1 (stereo unspecified) | 7.24 µM | 2.88 µM | 0.39 | – | –
16 | CC1CC(=O)N(c2ccccc2C(=O)OCC2CCCN(CCCCOc3ccccc3)C2)C1=O (stereo unspecified) | – | 1.7 µM | – | – | –
17 | O=C(OCC1CCCN(CCCCCOc2ccc(Cl)cc2)C1)c1ccccc1-c1ccccc1 (stereo unspecified) | 15.5 µM | 14.5 µM | 0.02 | – | –
18 | CC1CC(=O)N(c2ccccc2C(=O)OCC2CCCN(CCCCCOc3ccccc3)C2)C1=O (stereo unspecified) | – | 17 µM | – | – | –
19 | C[C@@H]1CC(=O)N(c2ccccc2C(=O)OC[C@@H]2CCCN(CCCc3ccccc3)C2)C1=O | 9.55 µM | 8.91 µM | 0.02 | – | –
20 | CC1CC(=O)N(c2ccccc2C(=O)CCC2CCCN(CCCCOc3ccc(C(F)(F)F)cc3)C2)C1=O (stereo unspecified) | – | 7.08 µM | – | – | –
21 | CC1CC(=O)N(c2ccccc2C(=O)OCC2CCCN(CCOc3cccc(Cl)c3)C2)C1=O (stereo unspecified) | 11.5 µM | 21.9 µM | 0.14 | – | –
22 | CC1CC(=O)N(c2ccccc2C(=O)OC2CN(CCCc3ccccc3)C3CC2C2OC(C)(C)OC23)C1=O (stereo unspecified) | 30.9 µM | – | – | – | –

Row | Compound | IC50 ([1]; read-out: pIC50 (converted)) | IC50 ([2]; read-out: pIC50 (converted)) | Ratio pIC50 (Homo sapiens) | IC50 ([1]; read-out: IC50) | IC50 ([2]; read-out: IC50)
23 | CN1CCCC(COC(=O)c2ccccc2-c2ccccc2)C1 (single isomer, unassigned) | 4.79 µM | 6.92 µM | -0.16 | – | –
24 | COc1cccc(OCCCCCN2CCCC(COC(=O)c3ccccc3N3C(=O)CC(C)C3=O)C2)c1OC (stereo unspecified) | – | 8.71 µM | – | – | –
25 | COc1ccc(OCCCCCN2CCCC(COC(=O)c3coc4ccccc4c3=O)C2)cc1 (stereo unspecified) | – | 10 µM | – | – | –
26 | CC1(C)CC(=O)N(c2ccccc2C(=O)OCC2CCCN(CCCc3ccccc3)C2)C1=O (single isomer, unassigned) | 5.01 µM | 4.9 µM | 0.01 | – | –
27 | O=C(OCC1CCCN(CCCc2ccccc2)C1)c1ccc(-c2ccccc2)cc1 (stereo unspecified) | 18.6 µM | 6.31 µM | 0.47 | – | –
28 | c1ccc(CCCN2CCCC(COCc3ccccc3-c3ccccc3)C2)cc1 (stereo unspecified) | 15.5 µM | 12.6 µM | 0.09 | – | –
29 | CC1CC(=O)N(c2ccccc2C(=O)OC2CN(C(C)C)C3CC2C2OC(C)(C)OC23)C1=O (stereo unspecified) | – | 7.59 µM | – | – | –
30 | COc1ccc(OCCCCCN2CCCC(COC(=O)c3ccccc3N3C(=O)CC(C)C3=O)C2)cc1OC (stereo unspecified) | 2000 µM | 8.32 µM | 2.38 | – | –
31 | CC1CC(=O)N(c2ccccc2C(=O)OCC2CCCN(CCOc3ccc(Cl)c(Cl)c3)C2)C1=O (stereo unspecified) | 17.4 µM | 15.1 µM | 0.06 | – | –
32 | Cc1ccc(OCCN2CCCC(COC(=O)c3ccccc3N3C(=O)CC(C)C3=O)C2)cc1 (stereo unspecified) | 18.6 µM | 11.2 µM | 0.22 | – | –
33 | O=C(OCC1CCCN(CCCc2ccccc2)C1)c1ccccc1N1C(=O)c2ccccc2C1=O (single isomer, unassigned) | 5.89 µM | 5.01 µM | 0.07 | – | –
34 | CC1CC(=O)N(c2ccccc2C(=O)OCC2CCCN(CCOc3ccc4ccccc4c3)C2)C1=O (stereo unspecified) | 6.76 µM | 7.41 µM | -0.04 | – | –
35 | O=C(CCC1CCCNC1)c1ccccc1-c1ccccc1 (stereo unspecified) | 6.61 µM | 9.12 µM | -0.14 | – | –
36 | O=C(OC1CCCN(CCCc2ccccc2)C1)c1ccccc1-c1ccccc1 (single isomer, unassigned) | – | – | – | 2.7 µM | 6.5 µM
37 | CC1CC(=O)N(c2ccccc2C(=O)OC[C@@H]2C[C@H](c3ccccc3)CN(CCCc3ccccc3)C2)C1=O (stereo partly specified) | – | 5.37 µM | – | – | –
38 | O=C(OCC1CCCN(C(=O)CCc2ccccc2)C1)c1ccccc1-c1ccccc1 (stereo unspecified) | 331 µM | 6.03 µM | 1.74 | > 100 µM | 5.6 µM
39 | COc1ccc(OCCCCCN2CCCC(COC(=O)c3cc(=O)c4ccccc4o3)C2)cc1 (stereo unspecified) | – | 10.2 µM | – | – | –
40 | CC1CC(=O)N(c2ccccc2C(=O)OCC2CCCN(CCc3c[nH]c4ccccc34)C2)C1=O (stereo unspecified) | 74.1 µM | 5.62 µM | 1.12 | – | –
41 | CC1CC(=O)N(c2ccccc2C(=O)OCC2CCCN(CCCCCOc3ccc(Cl)c(Cl)c3)C2)C1=O (stereo unspecified) | 9.12 µM | 17.4 µM | -0.28 | – | –
42 | CC1CC(=O)N(c2ccccc2C(=O)OCC2CCCN(CCCCOc3ccc(Cl)c(Cl)c3)C2)C1=O (stereo unspecified) | 74.1 µM | 12.3 µM | 0.78 | – | –
43 | COc1ccc(OCCCCCN2CCCC(COC(=O)c3ccccc3N3C(=O)CC(C)C3=O)C2)cc1 (stereo unspecified) | – | 14.5 µM | – | – | –
44 | O=C(OCC1=CCCN(CCCc2ccccc2)C1)c1ccccc1N1C(=O)CC(Cc2ccccc2)C1=O (stereo unspecified) | 3.72 µM | 5.13 µM | -0.14 | – | –

Row | Compound | IC50 ([1]; read-out: pIC50 (converted)) | IC50 ([2]; read-out: pIC50 (converted)) | Ratio pIC50 (Homo sapiens) | IC50 ([1]; read-out: IC50) | IC50 ([2]; read-out: IC50)
45 | CC(C)N1CC(OC(=O)c2ccccc2-c2ccccc2)C2CC1C1OC(C)(C)OC21 (stereo unspecified) | – | 9.55 µM | – | – | –
46 | O=C(OCC1CCCN(CCCc2ccccc2)C1)c1ccccc1N1C(=O)CC(CCc2ccccc2)C1=O (stereo unspecified) | 33.1 µM | 5.13 µM | 0.81 | – | –
47 | CC1CC(=O)N(c2ccccc2C(=O)OCC2CCCN(CCCCCc3ccccc3)C2)C1=O (stereo unspecified) | 4.17 µM | 24.5 µM | -0.77 | – | –
48 | COc1ccc(CC2CC(=O)N(c3ccccc3C(=O)OCC3CCCN(CCCc4ccccc4)C3)C2=O)cc1 (stereo unspecified) | 28.8 µM | 38.9 µM | -0.13 | – | –
49 | O=C(OCC1CCCN(CCCc2ccccc2)C1)c1ccccc1-c1cccc2ccccc12 (stereo unspecified) | – | – | 0.73 | – | –
50 | CC(=O)Nc1ccccc1C(=O)OCC1CCCN(CCCc2ccccc2)C1 (stereo unspecified) | 4.27 µM | 5.5 µM | -0.11 | – | –
51 | O=C(OCC1CCCN(CCc2ccccc2)C1)c1ccccc1N1C(=O)CC(Cc2ccccc2)C1=O (stereo unspecified) | 11.7 µM | 4.47 µM | 0.42 | – | –
52 | c1ccc(-c2ccccc2COCC2CCCNC2)cc1 (stereo unspecified) | – | 4.17 µM | – | – | –
53 | C[N+]1(C)CCCC(COC(=O)c2ccccc2-c2ccccc2)C1 (single isomer, unassigned) | 6.46 µM | 2.4 µM | 0.43 | – | –
54 | O=C(NCC1CCCN(CCCc2ccccc2)C1)c1ccccc1-c1ccccc1 (single isomer, unassigned) | – | 20 µM | 3.7 | – | –
55 | CC1CC(=O)N(c2ccccc2C(=O)OCC2CCCN(CCCC3CCCCC3)C2)C1=O (stereo unspecified) | 10.7 µM | 14.5 µM | -0.14 | – | –
56 | C[C@H]1CC(=O)N(c2ccccc2C(=O)OC[C@H]2CCCN(CCCc3ccccc3)C2)C1=O | 11 µM | 10.5 µM | 0.02 | – | –
57 | CC(C)N1CCCC(COC(=O)c2ccccc2N2C(=O)CC(Cc3ccccc3)C2=O)C1 (stereo unspecified) | – | 8.91 µM | – | – | –
58 | CC1CC(=O)N(c2ccccc2C(=O)OCC2CCCN(CCCCCCc3ccccc3)C2)C1=O (stereo unspecified) | – | 29.5 µM | – | – | –
59 | O=C(OCC1CCCNC1)c1ccccc1-c1ccccc1 (single isomer, unassigned) | 8.13 µM | 7.08 µM | 0.06 | – | –
60 | O=C(OCC1CCCN(CCCc2ccccc2)C1)c1ccccc1-n1cc(-c2ccccc2)nn1 (single isomer, unassigned) | 4.27 µM | 2.82 µM | 0.19 | – | –
61 | O=C(NCc1ccccc1-c1ccccc1)C1CCCN(CCCc2ccccc2)C1 (single isomer, unassigned) | 14.5 µM | 16.6 µM | -0.06 | – | –
62 | COc1ccc(OCCCCCN2CCCC(COC(=O)c3ccccc3-c3ccccc3)C2)cc1 (stereo unspecified) | 22.4 µM | 14.5 µM | – | – | –
63 | CC1CC(=O)N(c2ccccc2C(=O)OCC2CCCN(CCOc3cccc(-c4ccccc4)c3)C2)C1=O (stereo unspecified) | 26.9 µM | 7.24 µM | 0.57 | – | –
64 | COc1ccccc1C(=O)OCC1CCCN(CCCc2ccccc2)C1 (single isomer, unassigned) | 12 µM | 7.94 µM | 0.19 | – | –
